# Data reported in patent US9695155B2, “Herbicidal substituted pyrimidinyloxy benzene compounds” (E. I. DU PONT DE NEMOURS AND COMPANY, priority 2013, dated 2017).
# How the values were obtained:
# soybean = test: Test E preemergence; format: in vivo, Glycine max; details: for Soybean plant response rating: scale 0 to 100 (0 no effect, 100 complete control)
# Method in brief: (§1)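 Response was scored visually on a 0-100 scale (100 = complete control) versus controls after 14 to 21 days in the greenhouse. Test chemicals, formulated with surfactant in a non-phytotoxic solvent mixture, had been applied preemergence to seeds in silt loam soil or postemergence to 1- to 4-leaf plants in potting medium.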
# velvetleaf = test: Test E preemergence; format: in vivo, Abutilon theophrasti; details: for Velvetleaf plant response rating: scale 0 to 100 (0 no effect, 100 complete control)
# Method in brief: as §1
# wild poinsettia = test: Test E preemergence; format: in vivo, Euphorbia heterophylla; details: for Poinsettia, Wild plant response rating: scale 0 to 100 (0 no effect, 100 complete control)
# Method in brief: as §1
# Brazilian crabgrass = test: Test E preemergence; format: in vivo, Digitaria horizontalis; details: for Crabgrass, Brazil plant response rating: scale 0 to 100 (0 no effect, 100 complete control)
# Method in brief: as §1
# waterhemp = test: Test E preemergence; format: in vivo, Amaranthus rudis; details: for Waterhemp plant response rating: scale 0 to 100 (0 no effect, 100 complete control)
# Method in brief: as §1
# ragweed = test: Test E preemergence; format: in vivo, Ambrosia elatior; details: for Ragweed plant response rating: scale 0 to 100 (0 no effect, 100 complete control)
# Method in brief: as §1
# nightshade = test: Test E preemergence; format: in vivo, Solanum ptycanthum; details: for Nightshade plant response rating: scale 0 to 100 (0 no effect, 100 complete control)
# Method in brief: as §1
# surinam grass = test: Test E preemergence; format: in vivo, Brachiaria decumbens; details: for Surinam Grass plant response rating: scale 0 to 100 (0 no effect, 100 complete control)
# Method in brief: as §1
# kochia = test: Test E preemergence; format: in vivo, Kochia scoparia; details: for Kochia plant response rating: scale 0 to 100 (0 no effect, 100 complete control)
# Method in brief: as §1
# sandbur = test: Test E preemergence; format: in vivo, Cenchrus echinatus; details: for Sandbur plant response rating: scale 0 to 100 (0 no effect, 100 complete control)
# Method in brief: as §1
# fall panicum = test: Test E preemergence; format: in vivo, Panicum dichotomiflorum; details: for Panicum, Fall plant response rating: scale 0 to 100 (0 no effect, 100 complete control)
# Method in brief: as §1
# ducksalad = test: Test C flooded paddy test; format: in vivo, Heteranthera limosa; details: Flood, scale 0 to 100 (0 no effect, 100 complete control), 13 to 15 days
# Method in brief: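 Flooded 3 cm over soil; compound into paddy water; depth kept constant. Greenhouse 13–15 d.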
# palmer pigweed = test: Test E preemergence; format: in vivo, Amaranthus palmeri; details: for Pigweed, Palmer plant response rating: scale 0 to 100 (0 no effect, 100 complete control)
# Method in brief: as §1
# green foxtail = test: Test E preemergence; format: in vivo, Setaria viridis; details: for Foxtail, Green plant response rating: scale 0 to 100 (0 no effect, 100 complete control)
# Method in brief: as §1
# hairy beggarticks = test: Test E preemergence; format: in vivo, Bidens pilosa; details: for Beggarticks plant response rating: scale 0 to 100 (0 no effect, 100 complete control)
# Method in brief: as §1
# [1] = 8 g ai/ha, scale 0 to 100, 0 is no effect, 100 is complete control
# [2] = 125 g ai/ha, scale 0 to 100, 0 no effect, 100 complete control
# [3] = preemergence, 125 g ai/ha, scale 0 to 100, 0 no effect, 100 complete control
# [4] = 250 g ai/ha, scale 0 to 100, 0 no effect, 100 complete control
structure (smiles),measurement,setting,value
Fc1cccc(Oc2ncc(Cl)cn2)c1-n1cc(I)cn1 [Compound 179],"Plant response rating, Soybean",soybean; [1],0
same,Soybean plant response rating,soybean; 62 g ai/ha,25
same,"Plant response rating, Soybean",soybean; [2],40
same,"Plant response rating, Velvetleaf",velvetleaf; [1],20
same,Velvetleaf plant response rating,velvetleaf; 62 g ai/ha,100
same,"Plant response rating, Velvetleaf",velvetleaf; [2],100
same,"Plant response rating, Poinsettia, Wild",wild poinsettia; [1],0
same,"Poinsettia, Wild plant response rating",wild poinsettia; 62 g ai/ha,30
same,"Plant response rating, Poinsettia, Wild",wild poinsettia; [2],35
same,"Plant response rating, Crabgrass, Brazil",Brazilian crabgrass; [1],0
same,"Crabgrass, Brazil plant response rating",Brazilian crabgrass; 16 g ai/ha,0
same,"Crabgrass, Brazil plant response rating",Brazilian crabgrass; 62 g ai/ha,65
same,"Plant response rating, Crabgrass, Brazil",Brazilian crabgrass; [2],100
same,"Plant response rating, Waterhemp",waterhemp; [1],0
same,Waterhemp plant response rating,waterhemp; 62 g ai/ha,90
same,"Plant response rating, Waterhemp",waterhemp; [2],98
same,"Plant response rating, Ragweed",ragweed; [1],0
same,Ragweed plant response rating,ragweed; 62 g ai/ha,0
same,"Plant response rating, Ragweed",ragweed; [2],0
same,"Plant response rating, Nightshade",nightshade; [1],0
same,Nightshade plant response rating,nightshade; 62 g ai/ha,80
same,"Plant response rating, Nightshade",nightshade; [2],95
same,"Plant response rating, Surinam Grass",surinam grass; [1],0
same,Surinam Grass plant response rating,surinam grass; 62 g ai/ha,0
same,"Plant response rating, Surinam Grass",surinam grass; [2],0
same,"Plant response rating, Kochia",kochia; [1],0
same,Kochia plant response rating,kochia; 62 g ai/ha,25
same,"Plant response rating, Kochia",kochia; [2],75
same,"Plant response rating, Sandbur",sandbur; [1],0
same,Sandbur plant response rating,sandbur; 62 g ai/ha,15
same,"Plant response rating, Sandbur",sandbur; [2],15
same,"Plant response rating, Panicum, Fall",fall panicum; [1],0
same,"Panicum, Fall plant response rating",fall panicum; 62 g ai/ha,75
same,"Plant response rating, Panicum, Fall",fall panicum; [2],98
same,"Plant response rating, Ducksalad",ducksalad; 31 g ai/ha,20
same,"Plant response rating, Ducksalad",ducksalad; 62 g ai/ha,60
same,"Plant response rating, Ducksalad",ducksalad; 125 g ai/ha,85
same,"Plant response rating, Ducksalad",ducksalad; 250 g ai/ha,95
same,"Plant response rating, Pigweed, Palmer",palmer pigweed; [1],0
same,"Pigweed, Palmer plant response rating",palmer pigweed; 62 g ai/ha,100
same,"Plant response rating, Pigweed, Palmer",palmer pigweed; [2],100
same,"Plant response rating, Foxtail, Green",green foxtail; [1],0
same,"Foxtail, Green plant response rating",green foxtail; 16 g ai/ha,0
same,"Foxtail, Green plant response rating",green foxtail; 62 g ai/ha,25
same,"Plant response rating, Foxtail, Green",green foxtail; [2],100
same,"Plant response rating, Beggarticks","hairy beggarticks; 8 g ai/ha, preemergence, scale 0 to 100, 0 is no effect, 100 is complete control",0
same,Beggarticks plant response rating,"hairy beggarticks; 16 g ai/ha, preemergence",0
same,Beggarticks plant response rating,"hairy beggarticks; 62 g ai/ha, preemergence",0
same,"Plant response rating, Beggarticks",hairy beggarticks; [3],0
CCOc1cnn(-c2c(C#N)cccc2Oc2ncc(F)cn2)c1 [Compound 89],Soybean plant response rating,soybean; 62 g ai/ha,30
same,"Plant response rating, Soybean",soybean; [2],60
same,"Plant response rating, Soybean",soybean; [4],80
same,Velvetleaf plant response rating,velvetleaf; 31 g ai/ha,20
same,Velvetleaf plant response rating,velvetleaf; 62 g ai/ha,65
same,"Plant response rating, Velvetleaf",velvetleaf; [2],90
same,"Plant response rating, Velvetleaf",velvetleaf; [4],100
same,"Poinsettia, Wild plant response rating",wild poinsettia; 31 g ai/ha,20
same,"Poinsettia, Wild plant response rating",wild poinsettia; 62 g ai/ha,40
same,"Plant response rating, Poinsettia, Wild",wild poinsettia; [2],70
same,"Plant response rating, Poinsettia, Wild",wild poinsettia; [4],85
same,"Crabgrass, Brazil plant response rating",Brazilian crabgrass; 31 g ai/ha,20
same,"Crabgrass, Brazil plant response rating",Brazilian crabgrass; 62 g ai/ha,90
same,"Plant response rating, Crabgrass, Brazil",Brazilian crabgrass; [2],100
same,"Plant response rating, Crabgrass, Brazil",Brazilian crabgrass; [4],100
same,Waterhemp plant response rating,waterhemp; 31 g ai/ha,0
same,Waterhemp plant response rating,waterhemp; 62 g ai/ha,70
same,"Plant response rating, Waterhemp",waterhemp; [2],80
same,"Plant response rating, Waterhemp",waterhemp; [4],100
same,Ragweed plant response rating,ragweed; 31 g ai/ha,65
same,Ragweed plant response rating,ragweed; 62 g ai/ha,80
same,"Plant response rating, Ragweed",ragweed; [2],80
same,"Plant response rating, Ragweed",ragweed; [4],90
same,Nightshade plant response rating,nightshade; 62 g ai/ha,80
same,"Plant response rating, Nightshade",nightshade; [2],100
same,"Plant response rating, Nightshade",nightshade; [4],100
same,Surinam Grass plant response rating,surinam grass; 31 g ai/ha,0
same,Surinam Grass plant response rating,surinam grass; 62 g ai/ha,0
same,"Plant response rating, Surinam Grass",surinam grass; [2],10
same,"Plant response rating, Surinam Grass",surinam grass; [4],75
same,Kochia plant response rating,kochia; 31 g ai/ha,60
same,Kochia plant response rating,kochia; 62 g ai/ha,75
same,"Plant response rating, Kochia",kochia; [2],100
same,"Plant response rating, Kochia",kochia; [4],100
same,Sandbur plant response rating,sandbur; 31 g ai/ha,0
same,Sandbur plant response rating,sandbur; 62 g ai/ha,10
same,"Plant response rating, Sandbur",sandbur; [2],10
same,"Plant response rating, Sandbur",sandbur; [4],20
same,"Panicum, Fall plant response rating",fall panicum; 31 g ai/ha,0
same,"Panicum, Fall plant response rating",fall panicum; 62 g ai/ha,65
same,"Plant response rating, Panicum, Fall",fall panicum; [2],100
same,"Plant response rating, Panicum, Fall",fall panicum; [4],100
same,"Plant response rating, Ducksalad",ducksalad; 62 g ai/ha,0
same,"Plant response rating, Ducksalad",ducksalad; 125 g ai/ha,65
same,"Plant response rating, Ducksalad",ducksalad; 250 g ai/ha,80
same,"Pigweed, Palmer plant response rating",palmer pigweed; 31 g ai/ha,0
same,"Pigweed, Palmer plant response rating",palmer pigweed; 62 g ai/ha,0
same,"Plant response rating, Pigweed, Palmer",palmer pigweed; [2],40
same,"Plant response rating, Pigweed, Palmer",palmer pigweed; [4],100
same,"Foxtail, Green plant response rating",green foxtail; 31 g ai/ha,0
same,"Foxtail, Green plant response rating",green foxtail; 62 g ai/ha,35
same,"Plant response rating, Foxtail, Green",green foxtail; [2],65
same,"Plant response rating, Foxtail, Green",green foxtail; [4],85
same,Beggarticks plant response rating,"hairy beggarticks; 31 g ai/ha, preemergence",35
same,"Plant response rating, Beggarticks","hairy beggarticks; Preemergence, 62 g ai/ha, scale 0 to 100, 0 no effect, 100 complete control",60
same,"Plant response rating, Beggarticks",hairy beggarticks; [3],80
same,"Plant response rating, Beggarticks","hairy beggarticks; preemergence, 250 g ai/ha, scale 0 to 100, 0 no effect, 100 complete control",95
FC(F)(F)c1cnn(-c2c(Cl)cccc2Oc2ncc(Cl)cn2)c1 [Compound 167],Soybean plant response rating,soybean; 31 g ai/ha,0
same,Soybean plant response rating,soybean; 62 g ai/ha,20
same,"Plant response rating, Soybean",soybean; [2],50
same,Velvetleaf plant response rating,velvetleaf; 31 g ai/ha,20
same,Velvetleaf plant response rating,velvetleaf; 62 g ai/ha,65
same,"Plant response rating, Velvetleaf",velvetleaf; [2],100
same,"Poinsettia, Wild plant response rating",wild poinsettia; 31 g ai/ha,0
same,"Poinsettia, Wild plant response rating",wild poinsettia; 62 g ai/ha,20
same,"Plant response rating, Poinsettia, Wild",wild poinsettia; [2],25
same,"Crabgrass, Brazil plant response rating",Brazilian crabgrass; 16 g ai/ha,0
same,"Crabgrass, Brazil plant response rating",Brazilian crabgrass; 31 g ai/ha,20
same,"Crabgrass, Brazil plant response rating",Brazilian crabgrass; 62 g ai/ha,75
same,"Plant response rating, Crabgrass, Brazil",Brazilian crabgrass; [2],100
same,Waterhemp plant response rating,waterhemp; 31 g ai/ha,98
same,Waterhemp plant response rating,waterhemp; 62 g ai/ha,98
same,"Plant response rating, Waterhemp",waterhemp; [2],100
same,Ragweed plant response rating,ragweed; 31 g ai/ha,15
same,Ragweed plant response rating,ragweed; 62 g ai/ha,35
same,"Plant response rating, Ragweed",ragweed; [2],35
same,Nightshade plant response rating,nightshade; 31 g ai/ha,98
same,Nightshade plant response rating,nightshade; 62 g ai/ha,100
same,"Plant response rating, Nightshade",nightshade; [2],100
same,Surinam Grass plant response rating,surinam grass; 31 g ai/ha,0
same,Surinam Grass plant response rating,surinam grass; 62 g ai/ha,0
same,"Plant response rating, Surinam Grass",surinam grass; [2],0
same,Kochia plant response rating,kochia; 31 g ai/ha,40
same,Kochia plant response rating,kochia; 62 g ai/ha,65
same,"Plant response rating, Kochia",kochia; [2],90
same,Sandbur plant response rating,sandbur; 31 g ai/ha,0
same,Sandbur plant response rating,sandbur; 62 g ai/ha,20
same,"Plant response rating, Sandbur",sandbur; [2],65
same,"Panicum, Fall plant response rating",fall panicum; 31 g ai/ha,65
same,"Panicum, Fall plant response rating",fall panicum; 62 g ai/ha,100
same,"Plant response rating, Panicum, Fall",fall panicum; [2],100
same,"Plant response rating, Ducksalad",ducksalad; 31 g ai/ha,0
same,"Plant response rating, Ducksalad",ducksalad; 62 g ai/ha,50
same,"Plant response rating, Ducksalad",ducksalad; 125 g ai/ha,60
same,"Plant response rating, Ducksalad",ducksalad; 250 g ai/ha,80
same,"Pigweed, Palmer plant response rating",palmer pigweed; 31 g ai/ha,0
same,"Pigweed, Palmer plant response rating",palmer pigweed; 62 g ai/ha,98
same,"Plant response rating, Pigweed, Palmer",palmer pigweed; [2],100
same,"Foxtail, Green plant response rating",green foxtail; 16 g ai/ha,10
same,"Foxtail, Green plant response rating",green foxtail; 31 g ai/ha,35
same,"Foxtail, Green plant response rating",green foxtail; 62 g ai/ha,70
same,"Plant response rating, Foxtail, Green",green foxtail; [2],90
same,Beggarticks plant response rating,"hairy beggarticks; 16 g ai/ha, preemergence",0
same,Beggarticks plant response rating,"hairy beggarticks; 31 g ai/ha, preemergence",0
same,Beggarticks plant response rating,"hairy beggarticks; 62 g ai/ha, preemergence",0
same,"Plant response rating, Beggarticks",hairy beggarticks; [3],0
